For this data set the following is noted: Crystal 2; DSC.

Numbers after ± are expanded uncertainties.

Turning to `O=[Si]=O` [silicon dioxide], the Triple point temperature came out at 848 ± 2 K.
